# In the PolyMetriX glass transition set:
row,SMILES,glass transition temperature
1,*N=P(N=P(N=S(*)(=O)NCC=C)(NCC=C)NCC=C)(NCC=C)NCC=C (repeat unit),-18.00 °C
2,*c1ccc(Oc2ccc(S(=O)(=O)c3ccc(Oc4ccc(-c5nc(-c6ccccc6)[nH]c5*)cc4)cc3)cc2)cc1 (repeat unit),277.00 °C
3,*c1cccc(P(=O)(c2ccccc2)c2cccc(N3C(=O)c4ccc(NC(=O)OCCOc5ccc(C(c6ccc(OCCOC(=O)Nc7ccc8c(c7)C(=O)N(*)C8=O)cc6)(C(F)(F)F)C(F)(F)F)cc5)cc4C3=O)c2)c1 (repeat unit),214.00 °C
4,*c1ccc(Oc2ccc(-c3ccc(Oc4ccc(N5C(=O)c6ccc(Oc7ccc(C8(c9ccc(Oc%10ccc%11c(c%10)C(=O)N(*)C%11=O)cc9)CCCCCCCCCCC8)cc7)cc6C5=O)cc4)cc3C)c(C)c2)cc1 (repeat unit),257.00 °C
5,*CC(*)c1ccccc1C(=O)OC(C)C (repeat unit),146.00 °C
6,*c1ccc(Oc2ccc(C(=O)c3ccc(Oc4ccc(-c5c6c(c(*)c7ccccc57)C(=O)N(c5ccc(Cl)cc5)C6=O)cc4)cc3)cc2)cc1 (repeat unit),272.00 °C
7,*C(=O)c1ccc(Oc2ccc(-c3ccc(Oc4ccc(C(=O)c5ccc6c(c5)C(=O)N(c5ccc(Cc7ccc(N8C(=O)c9ccc(*)cc9C8=O)cc7)cc5)C6=O)cc4)cc3)cc2)cc1 (repeat unit),241.00 °C
8,*CC(*)c1ccccc1C(=O)O (repeat unit),177.00 °C
9,*CCCCCC(*)CCCC (repeat unit),-69.00 °C
10,*c1cccc(P(=O)(c2ccccc2)c2cccc(N3C(=O)c4ccc(NC(=O)OCCOc5ccc(P(=O)(c6ccccc6)c6ccc(OCCOC(=O)Nc7ccc8c(c7)C(=O)N(*)C8=O)cc6)cc5)cc4C3=O)c2)c1 (repeat unit),218.00 °C

# Next, values leading:
row,glass transition temperature,SMILES
1,66.00 °C,*Oc1ccc(CC(NC(=O)Cc2ccc(OC(=O)COCC(*)=O)cc2)C(=O)OCC)cc1 (repeat unit)
2,95.20 °C,*CC(*)(C)C(=O)OCCCCCCCCCCCCCCC(=O)NC1OC(COC(C)=O)C(OC2OC(COC(C)=O)C(OC(C)=O)C(OC(C)=O)C2OC(C)=O)C(OC(C)=O)C1OC(C)=O (repeat unit)
3,113.00 °C,*CCCCCNC(=O)C(OC)C(OC)C(=O)N* (repeat unit)
4,209.00 °C,*C(=O)Nc1ccc(C2(c3ccc(NC(=O)c4ccc5c(c4)C(=O)N(c4cccc(N6C(=O)c7ccc(*)cc7C6=O)c4)C5=O)cc3)c3ccccc3-c3ccccc32)cc1 (repeat unit)
5,118.50 °C,*CC(*)(C)C(=O)OCCCCCCOc1ccc(/N=N/c2ccc(C3OCC4(CO3)CC3C=CC4C3)cc2)cc1 (repeat unit)
6,280.00 °C,*c1ccc(-c2nc3cc(Oc4ccc(NC(=O)CN5C(=O)c6ccc(C(c7ccc8c(c7)C(=O)N(CC(=O)Nc7ccc(Oc9ccc%10nc(-c%11ccccc%11)c(*)nc%10c9)cc7)C8=O)(C(F)(F)F)C(F)(F)F)cc6C5=O)cc4)ccc3nc2-c2ccccc2)cc1 (repeat unit)
7,57.00 °C,*Oc1ccc(NC(=O)c2ccc(C(=O)Nc3ccc(OC4COC5C(*)COC45)cc3)cc2)cc1 (repeat unit)
8,175.00 °C,*Oc1ccc(C(C)(C)c2ccc(Oc3ccc(C(=O)c4ccc(*)c(S(=O)(=O)O)c4)cc3S(=O)(=O)O)cc2)cc1 (repeat unit)
9,178.00 °C,*OC1C(COC(C)=O)OC(*)C(OC(C)=O)C1OC(C)=O (repeat unit)
10,95.00 °C,*C(=O)c1ccc2c(c1)C(=O)N(c1cc(-c3nc4ccccc4oc3=O)cc(N3C(=O)c4ccc(*)cc4C3=O)c1)C2=O (repeat unit)
11,382.00 °C,*C(=O)c1ccc2c(c1)C(=O)N(c1ccc(-c3ccc(N4C(=O)c5ccc(*)cc5C4=O)cc3)cc1)C2=O (repeat unit)
12,28.00 °C,*Oc1ccccc1C(=O)OC(=O)c1ccccc1OC(=O)CCCCCCC(*)=O (repeat unit)
